Here are results for five substances from patent EP1258532A1, “Thermostable D-hydantoinase from Bacillus circulans and the application thereof” (NATIONAL SCIENCE COUNCIL, priority 2001, dated 2002).

In test [1] the test system is D-hydantoinase. The experiment in a line: Effects of metal ions on D-hydantoinase activity. The test is classed as biochemical, Bacillus circulans. Conditions: ion 500 µM; for Specific activity: 15 min at room temperature, substrate 10 mM D,L-p-HPH in 50 mM Tris-HCl (pH 8.0); for Relative activity: activity percentage based on that without adding ions. The method, then: Various divalent metal ions (as set forth in Table 1 below) were added to the vector pQE-bcidht in E. coli NovaBlue, crude extracts thereof or the purified D-hydantoinase of the present invention at 500 µM concentration. After 15 minutes of incubation at room temperature, 10 mM substrate of D,L-p-HPH (dissolved in 50 mM Tris-HCl (pH 8.0)) was added. The specific activity of the enzyme was then measured.

Test [2] has as its system D-hydantoinase. The test can be described thus: Effects of H2O2, NaCl and NH4Cl on D-hydantoinase activity. Conditions: in the presence of 0.8 M H2O2; 25°C for 10 min, residual H2O2 removed with catalase; 800000 µM. The test is classed as biochemical, Bacillus circulans. The protocol: The vector pQE-bcidht in E. coli NovaBlue, crude extracts thereof or the purified D-hydantoinase of the present invention was incubated at 25°C for 10 min. Afterwards, the catalase was added to the solution to remove residual H2O2, and then the enzyme activity was measured. In addition, various concentrations of NaCl and NH4Cl were added to the solution containing D-hydantoinase. The solution was incubated at room temperature for 10 min, and the enzyme activity was measured.

The substance FeSO2 came in with a Specific activity in the test with D-hydantoinase [1] of 2.52 unit/mg. The Relative activity in the test with D-hydantoinase [1] (15 min) amounted to 87.5%.
As to H2O2, the retained enzyme activity in the test with D-hydantoinase [2] was 85%.
For MgSO4, in the test on D-hydantoinase [1], the Specific activity amounted to 2.69 unit/mg and the Relative activity was 94%.
The corresponding values for NiSO4 are 4.00 unit/mg and 139%.
ZnSO4: in the test with D-hydantoinase [1], the Specific activity was 1.44 unit/mg and the Relative activity was 50%. Moreover, the “inhibition of D-hydantoinase activity” value in the test with D-hydantoinase [1] (substrate 10 mM D,L-p-HPH) amounted to 50%.
